Data published in ChEMBL document CHEMBL1201862, “PubChem BioAssay data set” (2004).
Active and inactive are the calls of the source.

Legend:
[1] = target: T1, Short transient receptor potential channel 4 (Mus musculus, UniProt Q9QUQ5); test: block of DAMGO-driven TRPC4 calcium entry – cell-based, HEK293 TRPC4/mu-opioid, Fluo-4 calcium, dose response (AID 434942); type: functional;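 note: potency of inhibitors blocking the TRPC4 calcium response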
T1 sequence (Q9QUQ5 whole entry): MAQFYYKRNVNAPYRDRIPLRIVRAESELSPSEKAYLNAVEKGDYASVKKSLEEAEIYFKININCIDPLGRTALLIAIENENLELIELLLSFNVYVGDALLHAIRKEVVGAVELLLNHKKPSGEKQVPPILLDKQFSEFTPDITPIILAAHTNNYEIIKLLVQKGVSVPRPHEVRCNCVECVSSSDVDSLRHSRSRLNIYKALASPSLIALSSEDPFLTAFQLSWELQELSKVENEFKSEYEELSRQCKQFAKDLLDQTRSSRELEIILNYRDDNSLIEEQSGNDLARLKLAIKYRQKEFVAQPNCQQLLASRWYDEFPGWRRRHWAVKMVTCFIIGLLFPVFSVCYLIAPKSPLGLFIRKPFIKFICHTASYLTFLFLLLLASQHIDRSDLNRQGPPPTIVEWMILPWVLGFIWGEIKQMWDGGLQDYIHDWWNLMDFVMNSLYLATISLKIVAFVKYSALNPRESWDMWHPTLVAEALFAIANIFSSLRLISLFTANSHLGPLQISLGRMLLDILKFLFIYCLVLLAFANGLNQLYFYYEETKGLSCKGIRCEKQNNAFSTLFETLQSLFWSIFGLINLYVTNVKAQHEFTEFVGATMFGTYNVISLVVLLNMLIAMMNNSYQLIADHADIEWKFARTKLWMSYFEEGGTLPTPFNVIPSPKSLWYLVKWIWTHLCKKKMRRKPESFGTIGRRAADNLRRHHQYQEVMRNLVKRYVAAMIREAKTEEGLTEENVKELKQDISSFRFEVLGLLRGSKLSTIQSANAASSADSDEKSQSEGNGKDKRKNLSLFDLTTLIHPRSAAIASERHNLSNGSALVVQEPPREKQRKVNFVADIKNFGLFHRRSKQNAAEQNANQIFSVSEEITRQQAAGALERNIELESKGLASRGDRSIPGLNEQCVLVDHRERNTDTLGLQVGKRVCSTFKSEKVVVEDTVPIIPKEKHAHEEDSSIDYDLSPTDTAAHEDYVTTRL

[2] = target: Beta-2 adrenergic receptor (Homo sapiens, UniProt P07550); test: ADRB2 activation measured by internalization – cell-based, FAP fluorogen, flow cytometry, cherry pick 1, dose response (AID 588763); type: functional
Chain of Beta-2 adrenergic receptor (P07550 whole entry): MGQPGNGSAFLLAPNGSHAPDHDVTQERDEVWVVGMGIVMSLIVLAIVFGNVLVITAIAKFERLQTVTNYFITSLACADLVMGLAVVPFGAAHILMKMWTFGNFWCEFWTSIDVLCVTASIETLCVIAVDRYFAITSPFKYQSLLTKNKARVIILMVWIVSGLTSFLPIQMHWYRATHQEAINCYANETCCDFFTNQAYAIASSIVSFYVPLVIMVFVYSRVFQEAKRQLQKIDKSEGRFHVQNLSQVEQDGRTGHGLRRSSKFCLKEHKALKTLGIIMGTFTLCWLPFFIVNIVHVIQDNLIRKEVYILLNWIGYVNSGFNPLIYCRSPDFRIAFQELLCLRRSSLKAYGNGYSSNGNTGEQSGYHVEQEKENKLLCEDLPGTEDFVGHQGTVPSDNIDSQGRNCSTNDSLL

Nonstructural protein 1 = Nonstructural protein 1 (Influenza A virus, UniProt Q194T2); type: functional, Influenza A virus (A/California/07/2009(H1N1))
Chain of Nonstructural protein 1 (Q194T2 whole entry): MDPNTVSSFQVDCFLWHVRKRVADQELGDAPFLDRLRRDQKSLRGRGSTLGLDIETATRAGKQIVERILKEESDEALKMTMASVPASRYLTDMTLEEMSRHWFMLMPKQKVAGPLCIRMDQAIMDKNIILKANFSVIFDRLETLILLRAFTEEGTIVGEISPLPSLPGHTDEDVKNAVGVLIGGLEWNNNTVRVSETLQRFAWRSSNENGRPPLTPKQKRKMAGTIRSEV

[3] = target: T2, Apoptotic protease-activating factor 1 (Homo sapiens, UniProt O14727); type: functional
T2 sequence (O14727 whole entry): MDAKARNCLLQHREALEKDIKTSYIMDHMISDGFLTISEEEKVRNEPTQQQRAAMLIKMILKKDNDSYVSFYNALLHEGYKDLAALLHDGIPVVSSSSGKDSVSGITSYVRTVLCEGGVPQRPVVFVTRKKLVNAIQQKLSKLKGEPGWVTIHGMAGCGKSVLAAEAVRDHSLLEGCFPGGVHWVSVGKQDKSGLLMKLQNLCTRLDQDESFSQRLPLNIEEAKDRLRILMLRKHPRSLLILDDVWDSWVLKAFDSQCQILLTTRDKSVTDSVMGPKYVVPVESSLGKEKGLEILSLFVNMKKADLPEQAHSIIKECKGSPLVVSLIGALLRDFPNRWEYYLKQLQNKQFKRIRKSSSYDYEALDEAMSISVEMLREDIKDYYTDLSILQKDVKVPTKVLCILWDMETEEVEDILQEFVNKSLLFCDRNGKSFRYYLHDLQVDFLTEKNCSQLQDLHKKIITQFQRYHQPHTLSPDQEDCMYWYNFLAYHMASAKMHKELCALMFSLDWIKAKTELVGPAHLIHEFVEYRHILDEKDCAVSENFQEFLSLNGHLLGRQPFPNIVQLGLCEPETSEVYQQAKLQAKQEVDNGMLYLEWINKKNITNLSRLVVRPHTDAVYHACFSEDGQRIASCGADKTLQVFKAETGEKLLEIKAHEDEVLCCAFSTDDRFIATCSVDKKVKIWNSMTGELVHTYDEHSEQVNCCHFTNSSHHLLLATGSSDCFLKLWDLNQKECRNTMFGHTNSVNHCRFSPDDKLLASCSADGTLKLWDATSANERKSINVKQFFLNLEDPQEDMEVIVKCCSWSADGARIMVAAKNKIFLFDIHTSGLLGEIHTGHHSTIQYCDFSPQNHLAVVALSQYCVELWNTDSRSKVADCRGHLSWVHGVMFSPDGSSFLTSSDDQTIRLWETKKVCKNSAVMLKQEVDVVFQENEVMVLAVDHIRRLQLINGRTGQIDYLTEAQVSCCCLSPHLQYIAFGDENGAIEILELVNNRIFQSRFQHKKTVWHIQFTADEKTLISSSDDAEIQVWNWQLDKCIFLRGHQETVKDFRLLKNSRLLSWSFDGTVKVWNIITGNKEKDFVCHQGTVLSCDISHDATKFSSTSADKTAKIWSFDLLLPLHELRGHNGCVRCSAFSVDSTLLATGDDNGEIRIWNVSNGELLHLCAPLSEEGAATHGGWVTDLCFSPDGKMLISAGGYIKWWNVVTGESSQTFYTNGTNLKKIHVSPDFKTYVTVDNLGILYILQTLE

[4] = system: Streptococcus sp. 'group A'; test: Streptococcus pyogenes SK(-)GAS viability under kanamycin – luminescence, BacTiterGlo, confirmation, counter-screen for streptokinase expression inhibitor project, dose response (AID 1900); type: functional, organism-based
Streptokinase A = target: T3, Streptokinase A (Streptococcus pyogenes serotype M1, UniProt P10520); test: viability-normalized secreted streptokinase activity reduction – plasminogen activation absorbance, OD405, dose response (AID 1914); type: functional, Streptococcus pyogenes M1 GAS;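 note: secreted streptokinase activity via plasminogen activation per viability signal from cell pellet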
T3 sequence (P10520 whole entry): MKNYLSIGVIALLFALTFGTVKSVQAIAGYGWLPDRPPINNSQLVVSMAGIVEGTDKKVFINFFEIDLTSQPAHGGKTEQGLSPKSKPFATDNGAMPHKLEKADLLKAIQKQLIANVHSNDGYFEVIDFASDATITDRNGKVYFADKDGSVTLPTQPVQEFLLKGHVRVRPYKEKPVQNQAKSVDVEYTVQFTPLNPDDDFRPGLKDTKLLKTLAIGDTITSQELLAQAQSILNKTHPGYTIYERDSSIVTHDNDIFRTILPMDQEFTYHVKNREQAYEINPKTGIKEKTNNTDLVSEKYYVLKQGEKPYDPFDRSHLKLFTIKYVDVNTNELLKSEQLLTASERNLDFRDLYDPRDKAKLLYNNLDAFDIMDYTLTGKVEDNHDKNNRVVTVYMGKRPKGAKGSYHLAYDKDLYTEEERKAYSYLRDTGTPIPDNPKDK

Streptococcus = test: GAS UMAA2166 growth inhibition – luminescence, BacTiterGlo, counter-screen for streptokinase expression inhibitor project, dose response (AID 1915); type: functional, organism-based;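 note: potency for reduction of bacterial viability or growth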
[5] = target: T4, Microphthalmia-associated transcription factor (Homo sapiens, UniProt O75030); test: reducers of TRPM1 reporter luminescence, concentration series – cell-based, SK-MEL-5, cherry-picked, set 3, MITF inhibitor project, dose response (AID 493073); type: functional;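 note: SK-MEL-5 melanoma cells with luciferase driven by the MITF target TRPM1 promoter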
T4 sequence (O75030 whole entry): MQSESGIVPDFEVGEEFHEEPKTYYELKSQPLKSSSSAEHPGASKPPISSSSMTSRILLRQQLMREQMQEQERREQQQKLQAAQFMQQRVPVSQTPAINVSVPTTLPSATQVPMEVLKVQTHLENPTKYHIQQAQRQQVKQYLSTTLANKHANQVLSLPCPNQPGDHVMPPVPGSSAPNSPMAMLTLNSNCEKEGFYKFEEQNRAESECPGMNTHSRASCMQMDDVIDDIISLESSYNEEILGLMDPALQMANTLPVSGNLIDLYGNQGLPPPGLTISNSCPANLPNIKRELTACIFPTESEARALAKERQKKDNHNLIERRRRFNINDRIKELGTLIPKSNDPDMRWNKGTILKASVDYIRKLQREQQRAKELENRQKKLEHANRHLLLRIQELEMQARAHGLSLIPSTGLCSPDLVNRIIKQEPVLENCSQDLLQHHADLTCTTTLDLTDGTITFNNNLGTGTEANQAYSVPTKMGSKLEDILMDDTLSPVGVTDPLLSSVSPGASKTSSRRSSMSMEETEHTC

INS1 = test: INS-1E survival protection against cytokine death – cell-based, luminescence, retest, dose response (AID 449756); type: functional; conditions: Rattus norvegicus;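 note: cell death triggered by IL-1 beta plus TNF-alpha plus IFN-gamma mixture; protective hits raise ATP signal compared with cytokine alone wells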
BJ [6] = test: BJ-TERT fibroblast viability loss – cell-based, RAS-independent, luminescence, dose response (AID 1933); type: functional; conditions: Homo sapiens
BJ [7] = test: cells; type: functional, cell-based; conditions: Homo sapiens
BJ [8] = test: BJ-TERT-LT-ST fibroblast viability loss – cell-based, RAS-independent, luminescence, dose response (AID 1935); type: functional; conditions: Homo sapiens;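 note: BJ fibroblasts immortalized with TERT plus LT and ST oncogenes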
[9] = DRD fibroblast viability loss – cell-based, non-viral oncogenic, luminescence, dose response (AID 1934); type: functional; conditions: Homo sapiens
Tumor necrosis factor = Tumor necrosis factor (Homo sapiens, UniProt P01375); test: analog potency on TNFa NF-kB signaling – cell-based, revised, SAR follow-up (AID 2337); type: functional
Chain of Tumor necrosis factor (P01375 whole entry, the tested form may be a part): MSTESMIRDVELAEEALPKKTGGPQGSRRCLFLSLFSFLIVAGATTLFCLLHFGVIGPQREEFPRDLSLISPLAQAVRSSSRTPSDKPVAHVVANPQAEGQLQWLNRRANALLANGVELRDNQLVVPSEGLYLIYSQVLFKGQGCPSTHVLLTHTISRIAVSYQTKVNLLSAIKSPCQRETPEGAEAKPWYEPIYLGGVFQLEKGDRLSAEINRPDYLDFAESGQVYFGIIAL

[10] = target: T5, Nucleotide-binding oligomerization domain-containing protein 1 (Homo sapiens, UniProt Q9Y239); test: blockers of NOD1 pathway activity – revised, SAR follow-up (AID 2333); type: functional
T5 sequence (Q9Y239 whole entry): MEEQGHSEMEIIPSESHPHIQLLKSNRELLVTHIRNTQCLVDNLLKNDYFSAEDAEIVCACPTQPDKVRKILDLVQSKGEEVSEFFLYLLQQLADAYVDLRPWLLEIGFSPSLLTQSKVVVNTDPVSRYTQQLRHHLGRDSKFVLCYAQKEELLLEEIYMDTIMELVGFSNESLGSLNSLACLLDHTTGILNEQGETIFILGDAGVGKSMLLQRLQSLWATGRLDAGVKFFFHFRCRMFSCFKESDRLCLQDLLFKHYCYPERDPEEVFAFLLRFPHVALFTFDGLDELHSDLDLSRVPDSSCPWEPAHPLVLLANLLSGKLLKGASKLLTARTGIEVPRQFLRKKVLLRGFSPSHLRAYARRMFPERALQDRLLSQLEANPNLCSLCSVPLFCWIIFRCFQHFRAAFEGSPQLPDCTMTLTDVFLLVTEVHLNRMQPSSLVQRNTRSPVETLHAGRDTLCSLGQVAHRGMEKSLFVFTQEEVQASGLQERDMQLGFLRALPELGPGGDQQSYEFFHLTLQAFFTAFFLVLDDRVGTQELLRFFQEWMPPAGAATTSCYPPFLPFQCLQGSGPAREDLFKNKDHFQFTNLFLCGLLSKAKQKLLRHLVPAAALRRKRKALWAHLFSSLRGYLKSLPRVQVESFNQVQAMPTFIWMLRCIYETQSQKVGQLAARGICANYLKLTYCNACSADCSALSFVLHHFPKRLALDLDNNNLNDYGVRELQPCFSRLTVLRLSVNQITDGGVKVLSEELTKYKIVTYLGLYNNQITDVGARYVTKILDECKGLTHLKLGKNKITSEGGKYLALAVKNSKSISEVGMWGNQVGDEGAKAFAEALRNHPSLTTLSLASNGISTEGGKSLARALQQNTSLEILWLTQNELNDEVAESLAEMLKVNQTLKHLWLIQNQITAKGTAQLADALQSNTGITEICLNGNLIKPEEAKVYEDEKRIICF

HEK293 = test: cells; conditions: Homo sapiens;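 note: cells exposed to compound for 14 hours overnight before viability readout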

CC(C)(c1ccccc1)c1ccc(OCCCNCCO)cc1
EC50 [1]: 4.22 µM (active)

CCc1ccc(CNC(=O)c2ccc(NC(=O)C3=CSCCO3)cc2)cc1
EC50 [2]: 0.0949 µM (active)

O=C1C(NS(=O)(=O)c2ccc(Cl)cc2)=C(N2CCCCC2)C(=O)c2ccccc21
IC50 (Nonstructural protein 1): 11.4 µM (active)
IC50 [3]: 30.5 µM (active)

CCCCCn1cc[n+](C2=C([N-]S(=O)(=O)c3ccccc3)C(=O)c3ccccc3C2=O)c1
EC50 [4]: 1.15 µM (active)
EC50 (Streptokinase A): 3.69 µM (active)
EC50 (Streptococcus): 13.3 µM (active)
AC50 [5]: 5.9 µM (active)
IC50 [3]: 13.8 µM (active)
AC50 (INS1): 4.7 µM (active)

COCCn1c(SCc2cc(C(C)=O)ccc2OC)nc2cc(Cl)ccc2c1=O
EC50 [1]: 3.35 µM (active)

CCC(=O)Nc1ccc(-c2nn3c(C)nnc3s2)cc1C
EC50 [2]: 3.12 µM (active)

Clc1ccc(CN2C3=NCCN3c3ccccc32)cc1Cl
EC50 [1]: 1.19 µM (active)

CC1(C)CC2CC(C)(CN2C(=O)c2cc(-c3ccc(O)cc3)on2)C1 (stereo not given)
EC50 [1]: 5.31 µM (active)

O=C(Nc1ccc(S(=O)(=O)N2CCCCC2)cc1)c1ccc(CN2CCc3ccccc3C2)cc1
EC50 (BJ [6]): 23.9 µM (active)
EC50 (BJ [7]): 51.8 µM (active)
EC50 (BJ [8]): > 150 µM (not active)
EC50 [9]: 22 µM (active)
IC50 (Tumor necrosis factor): 0.616 µM (active)
IC50 [10]: 0.432 µM (active)
IC50 (HEK293): 19.5 µM (active)

COc1ccc(NC(=O)c2ccc(CN3CCCCC3)cc2)cc1
IC50 (Tumor necrosis factor): > 20 µM (inactive)
IC50 [10]: > 20 µM (inactive)
IC50 (HEK293): > 20 µM (inactive)

O=C(CN1CCCCC1)N1c2ccccc2Oc2ccccc21
EC50 [1]: 6.68 µM (active)
